Measurements from patent publication US20250223268A1, “4-Methylsulfonylbenzamide Compound, Preparation Method, Herbicidal Composition And Use” (Jiangsu Flag Chemical Industry Co., Ltd., priority 2022, published 2025).

Key:
Type in all cases: in vivo
[1] = tested on: Eclipta prostrata; test: Greenhouse herbicidal activity assay, post-emergence; conditions: Post-emergence test, rate 150 g a.i./hm^2, grade by fresh weight inhibition rate
In short: (§1)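 Letter grades (A: ≥80% to 100%; C: ≥40% to <60%; E: <20%) express fresh weight inhibition recorded 14-21 days post-spray. Weeds were treated on the leaves once they reached 3-6 leaves in chamber-grown pots, allowed to dry naturally, then kept in the chamber.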

[2] = tested on: Leptochloa chinensis; test: as above; conditions: Post-emergence test, rate 150 g a.i./hm^2, grade by fresh weight inhibition rate
In short: as §1

[3] = tested on: Cyperus iria; test: as above; conditions: Post-emergence test, rate 150 g a.i./hm^2, grade by fresh weight inhibition rate
In short: as §1

[4] = tested on: Leptochloa chinensis; test: Greenhouse herbicidal activity and crop safety comparison (Test Example 2); conditions: Rate 150 g/ha
Description: (§2) Pre-emergence: Seeds of gramineous weeds (Echinochloa crusgalli, Echinochloa crusgalli var. zelayensis, Echinochloa phyllopogon, Eleusine indica, Digitaria sanguinalis, Leptochloa chinensis, Setaria viridis, Alopecurus japonicus Steud, Beckmannia syzigachne, Polypogon fugax, Alopecurus aequalis, Lolium multiflorum, Poa annua, Aegilops tataschii, Avena fatua, Alopecurus myosuroides, Bromus japonicus), broadleaf weeds (Eclipta prostrata, Amaranthus retroflexus, Rorippa indica, Myosoton aquaticum, Veronica didyma, Galium aparine, Solanum nigrum, Xanthium sibiricum, Conyza canadensis, Sesbania cannabina, Sagittaria trifolia), and Cyperus iria (Cyperus iria, Scirpus juncoides, Cyperus difformis, etc.) were sown in plastic pots (7 cm diameter) with nutrient soil and bottom holes. Crop seeds (including Oryza sativa subsp. indica, Oryza sativa subsp. japonica, Oryza sativa L. var. Glutinosa matsum, Triticum aestivum, Zea mays, Sorghum bicolor, Setaria italica, Glycine max, Gossypium hirsutum, Brassica napus, Arachis hypogaea) were sown in plastic pots (10 cm diameter) with nutrient soil and bottom holes. After sowing, the seeds were lightly covered with soil, and the soil was moistened via bottom water absorption. The pots were placed in a constant-temperature light-controlled growth chamber for 24 hours before soil spraying. Spraying was performed using a 3WP-2000 walking-type spray tower (produced by the Nanjing Agricultural Mechanization Institute, Ministry of Agriculture) with a spindle speed of 96 mm/r, spray height of 300 mm, effective spray width of 350 mm, spray area of 0.35 m^2, and nozzle flow rate of 390 mL/min.
(§3) After treatment, the test materials were air-dried naturally in the laboratory and then transferred to the growth chamber. Results were assessed 14-30 days later.
(§4) Post-emergence: Seeds of gramineous weeds (Echinochloa crusgalli, Echinochloa crusgalli var. zelayensis, Echinochloa phyllopogon, Eleusine indica, Digitaria sanguinalis, Leptochloa chinensis, Setaria viridis, Alopecurus japonicus Steud, Beckmannia syzigachne, Polypogon fugax, Alopecurus aequalis, Lolium multiflorum, Poa annua, Aegilops tataschii, Avena fatua, Alopecurus myosuroides, Bromus japonicus), broadleaf weeds (Eclipta prostrata, Amaranthus retroflexus, Rorippa indica, Myosoton aquaticum, Veronica didyma, Galium aparine, Solanum nigrum, Xanthium sibiricum, Conyza canadensis, Sesbania cannabina, Sagittaria trifolia), and Cyperus iria (Cyperus iria, Scirpus juncoides, Cyperus difformis, etc.) were sown in plastic pots (7 cm diameter) with nutrient soil and bottom holes. Crop seeds (including Oryza sativa subsp. indica, Oryza sativa subsp. japonica, Oryza sativa L. var. Glutinosa matsum, Triticum aestivum, Zea mays, Sorghum bicolor, Setaria italica, Glycine max, Gossypium hirsutum, Brassica napus, Arachis hypogaea) were sown in plastic pots (10 cm diameter) with nutrient soil and bottom holes. After sowing, the pots were placed in the growth chamber until the plants reached the 3-6 leaf stage for foliar spraying. Post-treatment, the materials were air-dried naturally and returned to the growth chamber. Results were assessed 14-21 days later.
(§5) • A: Fresh weight inhibition rate≥80% to 100%; • B: Fresh weight inhibition rate[…] to <80%; • C: Fresh weight inhibition rate≥40% to <60%; • D: Fresh weight inhibition rate≥20% to <40%; • E: Fresh weight inhibition rate<20%; • NT: Not tested.
(§6) Using the above method, the herbicidal activity and crop safety of the present compounds were compared with structurally similar known compounds (CK1, CK2, CK3, CK4: compounds 4-756, 4-759, 1-557, 1-563 from WO2012028579A1; CK5: compound 290-1 from WO2013087577A1; CK6: compound 1-129 from WO2011035874A1).

[5] = tested on: Oryza sativa subsp. indica; test: as above
Description: as §2, §3, §4, §5, §6

[6] = tested on: Oryza sativa subsp. japonica; test: as above
Description: as §2, §3, §4, §5, §6

[7] = tested on: Digitaria sanguinalis; test: Greenhouse herbicidal activity assay, post-emergence; conditions: Post-emergence test, rate 150 g a.i./hm^2, grade by fresh weight inhibition rate
In short: as §1

[8] = tested on: Echinochloa crusgalli; test: as above; conditions: Post-emergence test, rate 150 g a.i./hm^2, grade by fresh weight inhibition rate
In short: as §1

[9] = tested on: Echinochloa crusgalli; test: Greenhouse herbicidal activity and crop safety comparison (Test Example 2)
Description: as §2, §3, §4, §5, §6

CS(=O)(=O)c1ccc(C(=O)Nc2nnc(C3CC3)o2)c(Cl)c1S(=O)(=O)C1CCCC1 [Compound 3-665]
Control efficacy grade, Eclipta prostrata [1]: A (Fresh weight inhibition rate≥80% to 100%)
Control efficacy grade, Leptochloa chinensis [2]: A (Fresh weight inhibition rate≥80% to 100%)
Control efficacy grade, Cyperus iria [3]: B (Fresh weight inhibition rate≥260% to <80%)
Leptochloa chinensis, control efficacy grading (fresh weight inhibition rate) [4]: A (Fresh weight inhibition rate≥80% to 100%)
Oryza sativa subsp. indica, grading of fresh weight inhibition rate (crop safety) ([5]; Rate 150 g/ha): E (Fresh weight inhibition rate<20%)
Oryza sativa subsp. japonica, grading of fresh weight inhibition rate (crop safety) ([6]; Rate 150 g/ha): E (Fresh weight inhibition rate<20%)

CC(C)c1nnc(NC(=O)c2ccc(S(C)(=O)=O)c(S(=O)(=O)C3CC3)c2Cl)o1 [Compound 3-539]
Control efficacy grade, Leptochloa chinensis [2]: A (Fresh weight inhibition rate≥80% to 100%)
Control efficacy grade, Digitaria sanguinalis [7]: B (Fresh weight inhibition rate≥260% to <80%)
Control efficacy grade, Cyperus iria [3]: B (Fresh weight inhibition rate≥260% to <80%)
Control efficacy grade, Echinochloa crusgalli [8]: B (Fresh weight inhibition rate≥260% to <80%)
Leptochloa chinensis, control efficacy grading (fresh weight inhibition rate) [4]: A (Fresh weight inhibition rate≥80% to 100%)
Oryza sativa subsp. indica, grading of fresh weight inhibition rate (crop safety) ([5]; Rate 150 g/ha): E (Fresh weight inhibition rate<20%)
Oryza sativa subsp. japonica, grading of fresh weight inhibition rate (crop safety) ([6]; Rate 150 g/ha): E (Fresh weight inhibition rate<20%)

CC(C)c1nnc(NC(=O)c2ccc(S(C)(=O)=O)c(S(=O)(=O)C3CCC3)c2Cl)o1 [Compound 3-544]
Control efficacy grade, Eclipta prostrata [1]: A (Fresh weight inhibition rate≥80% to 100%)
Control efficacy grade, Leptochloa chinensis [2]: A (Fresh weight inhibition rate≥80% to 100%)
Control efficacy grade, Cyperus iria [3]: A (Fresh weight inhibition rate≥80% to 100%)
Control efficacy grade, Echinochloa crusgalli [8]: B (Fresh weight inhibition rate≥260% to <80%)
Leptochloa chinensis, control efficacy grading (fresh weight inhibition rate) [4]: A (Fresh weight inhibition rate≥80% to 100%)
Oryza sativa subsp. indica, grading of fresh weight inhibition rate (crop safety) ([5]; Rate 150 g/ha): E (Fresh weight inhibition rate<20%)
Oryza sativa subsp. japonica, grading of fresh weight inhibition rate (crop safety) ([6]; Rate 150 g/ha): E (Fresh weight inhibition rate<20%)

C=CCS(=O)(=O)c1c(S(C)(=O)=O)ccc(C(=O)Nc2nnnn2C)c1Cl [Compound 1-71]
Control efficacy grade, Eclipta prostrata [1]: A (Fresh weight inhibition rate≥80% to 100%)
Control efficacy grade, Leptochloa chinensis [2]: A (Fresh weight inhibition rate≥80% to 100%)
Control efficacy grade, Digitaria sanguinalis [7]: A (Fresh weight inhibition rate≥80% to 100%)
Control efficacy grade, Cyperus iria [3]: A (Fresh weight inhibition rate≥80% to 100%)
Control efficacy grade, Echinochloa crusgalli [8]: A (Fresh weight inhibition rate≥80% to 100%)
Oryza sativa subsp. indica, grading of fresh weight inhibition rate (crop safety) ([5]; Rate 250 g/ha): E (Fresh weight inhibition rate<20%)
Oryza sativa subsp. japonica, grading of fresh weight inhibition rate (crop safety) ([6]; Rate 250 g/ha): E (Fresh weight inhibition rate<20%)
Echinochloa crusgalli, control efficacy grading (fresh weight inhibition rate) ([9]; Rate 250 g/ha): A (Fresh weight inhibition rate≥80% to 100%)

CC(C)S(=O)(=O)c1c(S(C)(=O)=O)ccc(C(=O)Nc2nnnn2C)c1Cl [Compound 1-10]
Control efficacy grade, Eclipta prostrata [1]: A (Fresh weight inhibition rate≥80% to 100%)
Control efficacy grade, Leptochloa chinensis [2]: A (Fresh weight inhibition rate≥80% to 100%)
Control efficacy grade, Digitaria sanguinalis [7]: A (Fresh weight inhibition rate≥80% to 100%)
Control efficacy grade, Cyperus iria [3]: A (Fresh weight inhibition rate≥80% to 100%)
Control efficacy grade, Echinochloa crusgalli [8]: A (Fresh weight inhibition rate≥80% to 100%)
Oryza sativa subsp. indica, grading of fresh weight inhibition rate (crop safety) ([5]; Rate 150 g/ha): E (Fresh weight inhibition rate<20%)
Oryza sativa subsp. japonica, grading of fresh weight inhibition rate (crop safety) ([6]; Rate 150 g/ha): E (Fresh weight inhibition rate<20%)
Echinochloa crusgalli, control efficacy grading (fresh weight inhibition rate) ([9]; Rate 150 g/ha): A (Fresh weight inhibition rate≥80% to 100%)

CC(C)c1nnc(NC(=O)c2ccc(S(C)(=O)=O)c(S(=O)(=O)C3CCCC3)c2Cl)o1 [Compound 3-549]
Control efficacy grade, Eclipta prostrata [1]: A (Fresh weight inhibition rate≥80% to 100%)
Control efficacy grade, Leptochloa chinensis [2]: A (Fresh weight inhibition rate≥80% to 100%)
Control efficacy grade, Cyperus iria [3]: A (Fresh weight inhibition rate≥80% to 100%)
Leptochloa chinensis, control efficacy grading (fresh weight inhibition rate) [4]: A (Fresh weight inhibition rate≥80% to 100%)
Oryza sativa subsp. indica, grading of fresh weight inhibition rate (crop safety) ([5]; Rate 150 g/ha): E (Fresh weight inhibition rate<20%)
Oryza sativa subsp. japonica, grading of fresh weight inhibition rate (crop safety) ([6]; Rate 150 g/ha): E (Fresh weight inhibition rate<20%)

CCCS(=O)(=O)c1c(S(C)(=O)=O)ccc(C(=O)Nc2nnnn2C)c1Cl [Compound 1-5, 2-chloro-N-(1-methyl-1H-tetrazol-5-yl)-4-(methylsulfonyl)-3-(propylsulfonyl)benzamide]
pest or weed control at 150 g/ha ([1]; Eclipta prostrata, read-out: Control efficacy grade, Eclipta prostrata): 80 to 100%
pest or weed control at 150 g/ha ([2]; Dinebra chinensis, read-out: Control efficacy grade, Leptochloa chinensis): 80 to 100%
pest or weed control at 150 g/ha ([7]; Digitaria sanguinalis, read-out: Control efficacy grade, Digitaria sanguinalis): 80 to 100%
pest or weed control at 150 g/ha ([3]; Cyperus iria, read-out: Control efficacy grade, Cyperus iria): 80 to 100%
pest or weed control at 150 g/ha ([8]; Echinochloa crus-galli, read-out: Control efficacy grade, Echinochloa crusgalli): 80 to 100%
Oryza sativa subsp. indica, grading of fresh weight inhibition rate (crop safety) ([5]; Rate 150 g/ha): E (Fresh weight inhibition rate<20%)
Oryza sativa subsp. japonica, grading of fresh weight inhibition rate (crop safety) ([6]; Rate 150 g/ha): E (Fresh weight inhibition rate<20%)
inhibition at 150 g/ha ([9]; Echinochloa crus-galli, Rate 150 g/ha, read-out: Echinochloa crusgalli, control efficacy grading (fresh weight inhibition rate)): 80 to 100%

Cc1nnc(NC(=O)c2ccc(S(C)(=O)=O)c(S(=O)(=O)CCCl)c2Cl)o1 [Compound 3-216]
Control efficacy grade, Leptochloa chinensis [2]: A (Fresh weight inhibition rate≥80% to 100%)
Leptochloa chinensis, control efficacy grading (fresh weight inhibition rate) [4]: A (Fresh weight inhibition rate≥80% to 100%)
Oryza sativa subsp. indica, grading of fresh weight inhibition rate (crop safety) ([5]; Rate 150 g/ha): E (Fresh weight inhibition rate<20%)
Oryza sativa subsp. japonica, grading of fresh weight inhibition rate (crop safety) ([6]; Rate 150 g/ha): E (Fresh weight inhibition rate<20%)

Cn1nnnc1NC(=O)c1ccc(S(C)(=O)=O)c(S(=O)(=O)CC2CC2)c1Cl [Compound 1-31]
Control efficacy grade, Eclipta prostrata [1]: A (Fresh weight inhibition rate≥80% to 100%)
Control efficacy grade, Leptochloa chinensis [2]: A (Fresh weight inhibition rate≥80% to 100%)
Control efficacy grade, Digitaria sanguinalis [7]: A (Fresh weight inhibition rate≥80% to 100%)
Control efficacy grade, Cyperus iria [3]: A (Fresh weight inhibition rate≥80% to 100%)
Control efficacy grade, Echinochloa crusgalli [8]: A (Fresh weight inhibition rate≥80% to 100%)
Oryza sativa subsp. indica, grading of fresh weight inhibition rate (crop safety) ([5]; Rate 150 g/ha): E (Fresh weight inhibition rate<20%)
Oryza sativa subsp. japonica, grading of fresh weight inhibition rate (crop safety) ([6]; Rate 150 g/ha): E (Fresh weight inhibition rate<20%)
Echinochloa crusgalli, control efficacy grading (fresh weight inhibition rate) ([9]; Rate 150 g/ha): A (Fresh weight inhibition rate≥80% to 100%)
